From article PMC3638593, “1,4-dihydroxy-2-naphthoic Acid Induces Apoptosis in Human Keratinocyte: Potential Application for Psoriasis Treatment” (Evidence-based Complementary and Alternative Medicine : eCAM, 2013) come the findings set out here.

Holding throughout (assay type): cell-based, human
Test [1] has as its system HaCaT cells. In words: Hoechst 33342 fluorescent staining for morphological evaluation. The conditions noted are these: 72 h. As to the method:
After DHNA treatment, HaCaT cells were fixed in 4% paraformaldehyde for 30 min, washed with phosphate-buffered saline (PBS) and then stained with 2 μg/mL Hoechst 33342 (Molecular Probes, Eugene, OR, USA) for 15 min at room temperature in the dark. Morphology was evaluated using an Axiophot fluorescence microscope (Carl Zeiss, Oberkochen, Germany).

The subject of another test is NCTC 2544 cells. In words: Proliferation assay (sulphorhodamine B) on NCTC 2544. The conditions noted are these: for IC50: Homo sapiens, read-out: IC50 on growth. The text has this: (§1) The spontaneously immortalized human epidermal keratinocyte HaCaT cells were purchased from China Centre for Type Culture Collection, Wuhan, China. The human foreskin fibroblast Hs-68 cells were purchased from the American Type Culture Collection (Manassas, VA, USA). The human undifferentiated keratinocyte NCTC 2544 cells were provided by Interlab Cell Line Collection (Genoa, Italy) and the immortalized human epidermal melanocyte PIG1 cells were a gift from Dr Caroline Le Poole (Loyola University Chicago, Maywood, IL, USA). HaCaT and Hs-68 cells were maintained in DMEM, NCTC 2544 in RPMI 1640 and PIG1 cells in Medium 254 with Human Melanocyte Growth Supplement-2, respectively. All cells were cultured in complete medium containing 10% FBS, 100 μg/mL of streptomycin, and 100 U/mL of penicillin (Gibco Laboratories) at 37°C in a humidified atmosphere of 5% CO2. Cell culture experiments were carried out at 60–80% confluent.
(§2) The ethyl acetate extract (EA) of Rubia cordifolia L. was isolated as described. 1,4-dihydroxy-2-naphthoic acid (98%), dithranol (≥90%), and EA were dissolved in DMSO as stock. All cells were seeded and treated with various concentrations of DHNA, dithranol or EA. After treatment, cells were fixed with cold 50% trichloroacetic acid and incubated 1 h at 4°C. Cell was then washed with deionized water, air-dried, and stained with 0.4% (w/v) sulphorhodamine B for 30 min at room temperature. Unincorporated dye was removed with 1% acetic acid wash and the cell was again air-dried. Incorporated dye was then solubilized in 10 mM Tris base and absorbance was measured at 565/690 nm using a Sunrise microplate spectrophotometer (Tecan, Switzerland). IC50 were determined using GraphPad Prism 5.0 (GraphPad Software, San Diego, CA, USA).

The test system of test [2] is HaCaT cells. The test can be described thus: DNA fragmentation, Cell Death Detection ELISAplus. As to conditions: 240 μM (49.01 μg/mL). How it is done: After incubation of HaCaT cells with DHNA, subsequent experimental steps were following the protocol of the Cell Death Detection ELISA^plus (Roche Applied Science, Basel, Switzerland). Absorbance was measured at 405/490 nm by the Sunrise microplate spectrophotometer. Enrichment of mono- and oligonucleosomes (cytoplasmic histone-associated DNA fragments) into the cytoplasm was calculated as absorbance of treatment cells/absorbance of control (enrichment factor) which was used as a parameter of apoptosis.

Test [3] concerns HaCaT cells. The test can be described thus: TUNEL assay, flow cytometry. As to conditions: 24 h. As to the method:
After DHNA treatment, HaCaT cells were collected and washed and subsequent steps were following the protocol of In Situ Cell Death Detection kit, Fluorescein (Roche Applied Science). Fluorescein-labeled DNA strand breaks were detected by flow cytometry. The percentage of hypodiploid (fragmented) nuclei reflecting relative proportion of apoptotic cells was analyzed by WinMDI 2.9.

Test [4] has as its system AIF and endoG in HaCaT cells. In words: Immunofluorescence staining of AIF and endoG. As to conditions: 240 μM (49.01 μg/mL), 24 h. As to the method: HaCaT cells were first seeded on cover-slipped 6 well plates. After DHNA treatment, cells were washed three times with PBS and fixed in 1 : 1 acetone/methanol at −20°C for 10 min. Thereafter, cells were washed with PBS three times and then blocked for 15 min in blocking solution (1% BSA in PBS) at room temperature. After that, cells were incubated with either one of the following antibodies in blocking solution overnight at 4°C: apoptosis inducing factor, AIF or endonuclease G, and endoG. Cells were then washed with PBS three times and incubated with corresponding secondary antibody conjugated to Alexa Fluor 488 (Molecular Probes) in blocking solution in dark at room temperature for 1 h. After further washing with PBS for three times, the cover slips were then mounted on glass slides using the Vectashield mounting medium with DAPI (Vector Laboratories, Burlingame, CA). Stained cells were then visualized under the Nikon Ti-E inverted microscope (Nikon, Tokyo, Japan).

Test [5] deals with HaCaT cells. The test can be described thus: JC-1 staining, mitochondrial membrane potential. How it is done:
After DHNA treatment, HaCaT cells were harvested and washed with PBS. Cells were then incubated in 1.5 μM JC-1 (5,5′,6,6′-tetrachloro-1,1′,3,3′-tetraethylbenzimidazolylcarbocyanine iodide, Molecular Probes) in PBS at 37°C for 15 min in the dark. Thereafter cells were washed, resuspended in PBS and then immediately analyzed on the FACSCanto flow cytometer. If mitochondrial membrane potential (MMP) depolarizes, JC-1 becomes a monomer and emits green fluorescence; when MMP polarizes, JC-1 becomes a polymer and emits red fluorescence. It indicates mitochondria depolarization by a decrease in red/green fluorescence intensity ratio.

Test [6] has as its system HaCaT cells. The test can be described thus: Proliferation assay (sulphorhodamine B) on HaCaT. As to conditions: for IC50: Homo sapiens, read-out: IC50 on growth.
From the text: as §1, §2

Values joined by “and” are separate entries in the source; they are usually repeats but may differ in a detail not shown here. Identical values can stand only once. Like-named read-outs stand apart in the source and are kept apart here.

As a reminder, the IC50 is the concentration at which inhibition is half-maximal. Regarding `O=C(O)c1cc(O)c2ccccc2c1O` [DHNA, 1,4-dihydroxy-2-naphthoic acid], the “nuclear morphology (Hoechst 33342)” value is reported as “light blue/white fluorescence was emitted from the nuclei of all cells” in the test on HaCaT cells [1] (120 μM (24.5 μg/mL)); “chromatin condensation” in the test on HaCaT cells [1] (30 and 60 μM). In the test on HaCaT cells [1] (30, 60 and 120 μM), the “nuclear fragmentation (Hoechst 33342)” value was “nuclear fragmentation was also observed”. Also, the IC50 in the test on NCTC 2544 cells (NCTC 2544, incubation 48 h) is 81.4 µM and 16.6 µg/mL; in the test on NCTC 2544 cells (NCTC 2544, incubation 72 h) it was 46.8 µM and 9.56 µg/mL; in the test with HaCaT cells [6] (incubation 48 h), 111 µM and 22.8 µg/mL; with HaCaT cells [6] (incubation 72 h), 38.9 µM and 7.95 µg/mL. Further, the “less potent than dithranol in inhibiting keratinocytes growth” value in the test with NCTC 2544 cells (NCTC 2544, compared with dithranol) was ~ 12 times; in the test on HaCaT cells [6] (compared with dithranol) it was ~ 4 times. For the same compound, the “increase of DNA fragmentation compared with vehicle control” value in the test on HaCaT cells [2] (24 h) was “approximately 3.4 folds”; with HaCaT cells [2] (48 h), about 5.2 folds. The values for the TUNEL positive cells in the test with HaCaT cells [3] (30 μM/6.13 μg/mL) and in the test with HaCaT cells [3] (240 μM/49.01 μg/mL) were 15.8% and 92.7%, respectively. The “localization of AIF and endoG” value in test [4] is on record as “translocated to the nucleus”. In addition, the “MMP (red/green JC-1 fluorescence ratio) compared with vehicle control” value in the test on HaCaT cells [5] (30 μM/6.13 μg/mL, 24 h) is listed as 103.3%; in the test on HaCaT cells [5] (30 μM/6.13 μg/mL, 48 h) it was 95.5%; with HaCaT cells [5] (240 μM/49.01 μg/mL, 24 h), 35.4%; with HaCaT cells [5] (240 μM/49.01 μg/mL, 48 h), 29.2%.
